Patent publication US3931196A, “Phosphinolines and phosphindolines” (Monash University, priority 1972, dated 1976)

Tests used:
[1] = McKenzie Beechey Mouse Tail Stimulation Test (analgesic activity); type: in vivo; conditions: compound active at 16mg/kg
Procedure: The compounds described above were subjected to a Mouse Writhing Test and to the McKenzie Beechey Mouse Tail Stimulation Test (1962, Archives Internationales de Pharmacodynamae et de Therapie, 135) to determine their analgesic activities. The test compounds were prepared as 1.0% solutions in carboxymethylcellulose. The control in all tests was carboxymethylcellulose.

toxicity test (LD50) = conditions: in vivo, species and route not given

## CN(C)CCP1(=S)CCCc2ccccc21 (centres unmarked) [Compound 19, 1-(2-N,N-Dimethylamino)ethyl-1-thio-1,2,3,4-tetrahydrophosphinoline]
[1]
  activity relative to morphine in the Tail Stimulation Test: comparable to morphine
Toxicity test (LD50)
  LD50: 170 mg/kg
